In US8697727B2, “N-substituted-heterocycloalkyloxybenzamide compounds and methods of use” (Rigel Pharmaceuticals, Inc., priority 2006, dated 2014) one finds EC50 data, which are given here for 14 compounds.

Some results are limits rather than exact numbers.

The assay concerns AMPK. Kind of assay: AMPK activation, enzyme-linked immunosorbent assay. The assay is classed as cell-based. The method, boiled down:
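Cell-based assay in which AMPK activity was measured as the relative concentration of phosphorylated acetyl-CoA carboxylase, a product of AMPK, by enzyme-linked immunosorbent assay. The endpoint is the EC50 for AMPK activation of each compound. EC50 values were reported in ranges: less than 1 μM, 1-10 μM, 10-20 μM, 20-50 μM, 50-100 μM, and >100 μM.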
A word on the EC50: it is the concentration at which the effect is half-maximal. Low values mean an effect from little substance, high ones a need for much substance. Turning to `O=C(NC1CCN(Cc2ccccc2)CC1)c1cccc(OC2CCN(c3ccncc3)CC2)c1` [Compound 53, N-(1-benzylpiperidin-4-yl)-3-(1-(pyridin-4-yl)piperidin-4-yloxy)benzamide], the EC50 was in the range of 10000 to 20000 nM.

Regarding `O=C(NC1CCN(Cc2ccccc2)CC1)c1ccc(OC2CCN(c3ccc(C(F)(F)F)cc3)CC2)c(Cl)c1` [Compound 17, N-(1-benzylpiperidin-4-yl)-3-chloro-4-(1-(4-(trifluoromethyl)phenyl)piperidin-4-yloxy)benzamide], the EC50 is less than 1000 nM.

Take `COc1cc(C(=O)NC2CCN(Cc3ccccc3)CC2)ccc1OC1CCN(c2cccs2)CC1` [Compound 8, N-(1-benzylpiperidin-4-yl)-3-methoxy-4-(1-(thiophen-2-yl)piperidin-4-yloxy)benzamide]: the concentration for a half-maximal effect (EC50) lay in the range of 1000 to 10000 nM.

In turn, `O=C(NC1CCN(Cc2ccccc2)CC1)c1ccc(OC2CCN(C(=O)c3ccc(C(F)(F)F)cc3)CC2)c(Cl)c1` [Compound 18, N-(1-benzylpiperidin-4-yl)-3-chloro-4-(1-(4-(trifluoromethyl)benzoyl)piperidin-4-yloxy)benzamide] had an EC50 of less than 1000 nM.

Turning to `N#Cc1ccc(CN2CCC(Oc3ccc(C(=O)NC4CCN(Cc5ccccc5)CC4)cc3F)CC2)cc1` [Compound 41, N-(1-benzylpiperidin-4-yl)-4-(1-(4-cyanobenzyl)piperidin-4-yloxy)-3-fluorobenzamide], the concentration for a half-maximal effect (EC50) was less than 1000 nM.

As for `O=C(NC1CCN(Cc2ccccc2)CC1)c1ccc(OC2CCN(Cc3ccc(OC(F)(F)F)cc3)CC2)c(F)c1` [Compound 57, N-(1-benzylpiperidin-4-yl)-3-fluoro-4-(1-(4-(trifluoromethoxy)benzyl)piperidin-4-yloxy)benzamide], the EC50 was less than 1000 nM.

The compound `O=C(NC1CCN(Cc2ccccc2)CC1)c1cccc(OC2CCN(Cc3ccc(C(F)(F)F)cc3)CC2)c1` [Compound 52, N-(1-benzylpiperidin-4-yl)-3-(1-(4-(trifluoromethyl)benzyl)piperidin-4-yloxy)benzamide] showed an EC50 of 1000 to 10000 nM.

Take `O=C(NC1CCN(Cc2ccccc2)CC1)c1ccc(OC2CCNCC2)c(Cl)c1` [Compound 93, N-(1-benzylpiperidin-4-yl)-3-chloro-4-(piperidin-4-yloxy)benzamide]: the 50% effective concentration (EC50) is greater than 100000 nM.

The compound `CC(C)(C)OC(=O)NCCCNC(=O)c1ccc(OC2CCN(Cc3ccccc3)CC2)c(Cl)c1` [Compound 102, tert-butyl 3-(4-(1-benzylpiperidin-4-yloxy)-3-chlorobenzamido)propylcarbamate] gave a concentration giving a half-maximal response (EC50) of 10000 to 20000 nM.

As for `O=C(NC1CCN(Cc2ccccc2)CC1)c1ccc(OC2CCN(Cc3ccccc3C(F)(F)F)CC2)c(Cl)c1` [Compound 24, N-(1-benzylpiperidin-4-yl)-3-chloro-4-(1-(2-(trifluoromethyl)benzyl)piperidin-4-yloxy)benzamide], the EC50 fell in the range of 10000 to 20000 nM.

As to `O=C(NC1CCN(Cc2ccc(Cl)cc2)CC1)c1ccc(OC2CCN(Cc3ccc(Cl)c(Cl)c3)CC2)c(F)c1` [Compound 80, N-(1-(4-chlorobenzyl)piperidin-4-yl)-4-(1-(3,4-dichlorobenzyl)piperidin-4-yloxy)-3-fluorobenzamide], the EC50 was less than 1000 nM.

`O=C(NC1CCN(Cc2ccccc2)CC1)c1ccc(OC2CCN(Cc3ccc(F)cc3)CC2)c(Cl)c1` [Compound 19, N-(1-benzylpiperidin-4-yl)-3-chloro-4-(1-(4-fluorobenzyl)piperidin-4-yloxy)benzamide] gave an EC50 of less than 1000 nM.

With `O=C(NC1CCN(Cc2ccncc2)CC1)c1ccc(OC2CCN(c3ccc(C(F)(F)F)cc3)CC2)c(F)c1` [Compound 28, 3-fluoro-N-(1-(pyridin-4-ylmethyl)piperidin-4-yl)-4-(1-(4-(trifluoromethyl)phenyl)piperidin-4-yloxy)benzamide], the EC50 is less than 1000 nM.

In turn, `CC(C)S(=O)(=O)N1CCC(NC(=O)c2ccc(OC3CCN(c4ccc(C(F)(F)F)cc4)CC3)c(F)c2)CC1` [Compound 34, 3-fluoro-N-(1-(isopropylsulfonyl)piperidin-4-yl)-4-(1-(4-(trifluoromethyl)phenyl)piperidin-4-yloxy)benzamide] yielded an EC50 of less than 1000 nM.
